In patent publication US20230085307A1, “PYRIDAZINONE COMPOUND AND HERBICIDE” (NISSAN CHEMICAL CORPORATION, priority 2019, published 2023):

How the values were obtained:
southern crabgrass [1] = test: Test Example 4: herbicidal effect by soil treatment (Table 19, symbol F); type: in vivo, southern crabgrass (Digitaria ciliaris); settings: amount of applied herbicide 320 g/ha
Summary of the method: (§1)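 Scoring uses the grading scale of an earlier test, three weeks post-application. Treatment consists of spraying a diluted emulsion formulation across the surface of sterilized diluvial soil in which seeds are buried near 1.5 cm deep; boxes are kept in a greenhouse between 25° C. and 30° C.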

southern crabgrass [2] = test: Test Example 5: herbicidal effect by foliage application, plastic box (Table 20, symbol F); type: in vivo, southern crabgrass (Digitaria ciliaris); settings: foliage application, 320 g/ha, three weeks after application
Summary of the method: (§2)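 Post-emergence foliar test in sterilized diluvial soil. Compound applied as water-diluted emulsion at a predetermined rate to 14-day-old plants; evaluation at three weeks.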

persian speedwell [3] = test: Test Example 5: herbicidal effect by foliage application, plastic box (Table 20, symbol R); type: in vivo, Persian speedwell (Veronica persica); settings: foliage application, 320 g/ha, three weeks after application
Summary of the method: as §2

lambsquarters [4] = test: Test Example 4: herbicidal effect by soil treatment (Table 19, symbol O); type: in vivo, lambsquarters (Chenopodium album); settings: amount of applied herbicide 320 g/ha
Summary of the method: as §1

velvetleaf [5] = test: Test Example 4: herbicidal effect by soil treatment (Table 19, symbol M); type: in vivo, velvetleaf (Abutilon theophrasti); settings: amount of applied herbicide 320 g/ha
Summary of the method: as §1

barnyard grass [6] = test: Test Example 3: herbicidal effect by foliage application, Wagner pot (Table 18, symbol H); type: in vivo, barnyard grass (Echinochloa crus-galli); settings: amount of applied herbicide 320 g/ha
Summary of the method: (§3)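 Plants were sown in alluvial soil held under 0.1–0.5 cm standing water and grown 14 days in a greenhouse at 25–30 °C. An emulsifiable formulation, water-diluted to the set dose, was then sprayed onto the foliage, and effects were scored three weeks later using previously defined criteria.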

Italian ryegrass [7] = test: Test Example 4: herbicidal effect by soil treatment (Table 19, symbol K); type: in vivo, Italian ryegrass (Lolium multiflorum); settings: amount of applied herbicide 320 g/ha
Summary of the method: as §1

wild oat [8] = test: Test Example 5: herbicidal effect by foliage application, plastic box (Table 20, symbol I); type: in vivo, wild oat (Avena fatua); settings: foliage application, 320 g/ha, three weeks after application
Summary of the method: as §2

chickweed [9] = test: Test Example 5: herbicidal effect by foliage application, plastic box (Table 20, symbol P); type: in vivo, common chickweed (Stellaria media); settings: foliage application, 320 g/ha, three weeks after application
Summary of the method: as §2

windgrass [10] = test: Test Example 4: herbicidal effect by soil treatment (Table 19, symbol L); type: in vivo, windgrass (Apera spica-venti); settings: amount of applied herbicide 320 g/ha
Summary of the method: as §1

rice flat sedge = test: Test Example 3: herbicidal effect by foliage application, Wagner pot (Table 18, symbol E); type: in vivo, rice flat sedge (Cyperus iria); settings: amount of applied herbicide 320 g/ha
Summary of the method: as §3

persian speedwell [11] = test: Test Example 4: herbicidal effect by soil treatment (Table 19, symbol R); type: in vivo, Persian speedwell (Veronica persica); settings: amount of applied herbicide 320 g/ha
Summary of the method: as §1

windgrass [12] = test: Test Example 5: herbicidal effect by foliage application, plastic box (Table 20, symbol L); type: in vivo, windgrass (Apera spica-venti); settings: foliage application, 320 g/ha, three weeks after application
Summary of the method: as §2

green foxtail [13] = test: Test Example 4: herbicidal effect by soil treatment (Table 19, symbol G); type: in vivo, green foxtail (Setaria viridis); settings: amount of applied herbicide 320 g/ha
Summary of the method: as §1

redroot pigweed [14] = test: Test Example 4: herbicidal effect by soil treatment (Table 19, symbol N); type: in vivo, redroot pigweed (Amaranthus retroflexus); settings: amount of applied herbicide 320 g/ha
Summary of the method: as §1

chickweed [15] = test: Test Example 4: herbicidal effect by soil treatment (Table 19, symbol P); type: in vivo, common chickweed (Stellaria media); settings: amount of applied herbicide 320 g/ha
Summary of the method: as §1

Chinese sprangletop = test: Test Example 3: herbicidal effect by foliage application, Wagner pot (Table 18, symbol D); type: in vivo, chinese sprangletop (Leptochloa chinensis); settings: amount of applied herbicide 320 g/ha
Summary of the method: as §3

blackgrass [16] = test: Test Example 5: herbicidal effect by foliage application, plastic box (Table 20, symbol J); type: in vivo, blackgrass (Alopecurus myosuroides); settings: foliage application, 320 g/ha, three weeks after application
Summary of the method: as §2

lambsquarters [17] = test: Test Example 5: herbicidal effect by foliage application, plastic box (Table 20, symbol O); type: in vivo, lambsquarters (Chenopodium album); settings: foliage application, 320 g/ha, three weeks after application
Summary of the method: as §2

redroot pigweed [18] = test: Test Example 5: herbicidal effect by foliage application, plastic box (Table 20, symbol N); type: in vivo, redroot pigweed (Amaranthus retroflexus); settings: foliage application, 320 g/ha, three weeks after application
Summary of the method: as §2

Italian ryegrass [19] = test: Test Example 5: herbicidal effect by foliage application, plastic box (Table 20, symbol K); type: in vivo, Italian ryegrass (Lolium multiflorum); settings: foliage application, 320 g/ha, three weeks after application
Summary of the method: as §2

blackgrass [20] = test: Test Example 4: herbicidal effect by soil treatment (Table 19, symbol J); type: in vivo, blackgrass (Alopecurus myosuroides); settings: amount of applied herbicide 320 g/ha
Summary of the method: as §1

green foxtail [21] = test: Test Example 5: herbicidal effect by foliage application, plastic box (Table 20, symbol G); type: in vivo, green foxtail (Setaria viridis); settings: foliage application, 320 g/ha, three weeks after application
Summary of the method: as §2

wild oat [22] = test: Test Example 4: herbicidal effect by soil treatment (Table 19, symbol I); type: in vivo, wild oat (Avena fatua); settings: amount of applied herbicide 320 g/ha
Summary of the method: as §1

barnyard grass [23] = test: Test Example 4: herbicidal effect by soil treatment (Table 19, symbol H); type: in vivo, barnyard grass (Echinochloa crus-galli); settings: amount of applied herbicide 320 g/ha
Summary of the method: as §1

barnyard grass [24] = test: Test Example 5: herbicidal effect by foliage application, plastic box (Table 20, symbol H); type: in vivo, barnyard grass (Echinochloa crus-galli); settings: foliage application, 320 g/ha, three weeks after application
Summary of the method: as §2

velvetleaf [25] = test: Test Example 5: herbicidal effect by foliage application, plastic box (Table 20, symbol M); type: in vivo, velvetleaf (Abutilon theophrasti); settings: foliage application, 320 g/ha, three weeks after application
Summary of the method: as §2

## Cc1nn(C)c(=O)c(-c2c(-c3ccc(Cl)cc3)sc3cc(Cl)ccc23)c1O [3-033]
Southern crabgrass [1]
  F: southern crabgrass, herbicidal effect grade: 0 (Herbicidal rate of 5% or less (almost no effect))
Southern crabgrass [2]
  F: southern crabgrass, herbicidal effect grade: 3 (Herbicidal rate of 40% or more and less than 70%)
Persian speedwell [3]
  R: persian speedwell, herbicidal effect grade: 5 (Herbicidal rate of 90% or more (almost completely withered))
Lambsquarters [4]
  O: lambsquarters, herbicidal effect grade: 3 (Herbicidal rate of 40% or more and less than 70%)
Velvetleaf [5]
  M: velvetleaf, herbicidal effect grade: 0 (Herbicidal rate of 5% or less (almost no effect))
Barnyard grass [6]
  herbicidal effect on H: barnyard grass: 4 (Herbicidal rate of 70% or more and less than 90%)
Italian ryegrass [7]
  K: Italian ryegrass, herbicidal effect grade: 4 (Herbicidal rate of 70% or more and less than 90%)
Wild oat [8]
  I: wild oat, herbicidal effect grade: 4 (Herbicidal rate of 70% or more and less than 90%)
Chickweed [9]
  P: chickweed, herbicidal effect grade: 5 (Herbicidal rate of 90% or more (almost completely withered))
Windgrass [10]
  L: windgrass, herbicidal effect grade: 3 (Herbicidal rate of 40% or more and less than 70%)
Rice flat sedge
  herbicidal effect on E: rice flat sedge: 5 (Herbicidal rate of 90% or more (almost completely withered))
Persian speedwell [11]
  R: persian speedwell, herbicidal effect grade: 3 (Herbicidal rate of 40% or more and less than 70%)
Windgrass [12]
  L: windgrass, herbicidal effect grade: 4 (Herbicidal rate of 70% or more and less than 90%)
Green foxtail [13]
  G: green foxtail, herbicidal effect grade: 0 (Herbicidal rate of 5% or less (almost no effect))
Redroot pigweed [14]
  N: redroot pigweed, herbicidal effect grade: 4 (Herbicidal rate of 70% or more and less than 90%)
Chickweed [15]
  P: chickweed, herbicidal effect grade: 2 (Herbicidal rate of 20% or more and less than 40%)
Chinese sprangletop
  herbicidal effect on D: Chinese sprangletop: 3 (Herbicidal rate of 40% or more and less than 70%)
Blackgrass [16]
  J: blackgrass, herbicidal effect grade: 4 (Herbicidal rate of 70% or more and less than 90%)
Lambsquarters [17]
  O: lambsquarters, herbicidal effect grade: 4 (Herbicidal rate of 70% or more and less than 90%)
Redroot pigweed [18]
  N: redroot pigweed, herbicidal effect grade: 5 (Herbicidal rate of 90% or more (almost completely withered))
Italian ryegrass [19]
  K: Italian ryegrass, herbicidal effect grade: 4 (Herbicidal rate of 70% or more and less than 90%)
Blackgrass [20]
  J: blackgrass, herbicidal effect grade: 0 (Herbicidal rate of 5% or less (almost no effect))
Green foxtail [21]
  G: green foxtail, herbicidal effect grade: 5 (Herbicidal rate of 90% or more (almost completely withered))
Wild oat [22]
  I: wild oat, herbicidal effect grade: 0 (Herbicidal rate of 5% or less (almost no effect))
Barnyard grass [23]
  H: barnyard grass, herbicidal effect grade: 0 (Herbicidal rate of 5% or less (almost no effect))
Barnyard grass [24]
  H: barnyard grass, herbicidal effect grade: 4 (Herbicidal rate of 70% or more and less than 90%)
Velvetleaf [25]
  M: velvetleaf, herbicidal effect grade: 4 (Herbicidal rate of 70% or more and less than 90%)
